One experiment relates to Ehrlich solid carcinoma. In words: In vivo cytotoxicity study, Ehrlich solid carcinoma model. More on the design: species or system male Swiss albino mice. Particulars: i.p. once weekly for 3 weeks, 8b 1 mg/kg, 3b 1.4 mg/kg, doxorubicin 2 mg/kg; for VEGF expression by immunohistochemistry / caspase-3 expression by immunohistochemistry: Ehrlich solid tumour tissue; for Histopathological examination of Ehrlich solid tumour (H&E): mice. Here is the method:
The National Cancer Institute (Cairo, Egypt) provided the 48 male Swiss albino mice utilised in this study, which ranged in weight from 25 to 30 g. Prior to the experiment, mice were given a week to settle into their new environment. A constant 23 °C temperature, 60% humidity, and a 12/12 light/dark cycle were maintained in stainless steel cages. Each cage housed five mice with a plenty of nourishing food and refreshing water were served. This in vivo study was approved from the ethical committee of the Azhar University, Faculty of Medicine, Egypt.
A female mouse with an 8-day-old ascetic tumour was obtained from the National Cancer Institute on the day of induction, and Ehrlich ascites carcinoma (EAC) cells were isolated from the ascetic fluid of the animal (day 0). Then, regular saline was used to dilute the ascetic fluid (1:10). Each mouse received a subcutaneous injection of 0.2 ml of ascetic fluid containing 2.5 × 10^6 EAC cells in the right thigh of the hind limb to induce Ehrlich solid-phase cancer.
On day 11 following ESC inoculation, tumour formation was observed as a solid mass expanding in the right thigh of each animal. The mice were then randomly divided into four groups (n = 6) • Group (1) acted as the […] control group and mice received an i.p. DMSO (2 mg/kg/once weekly) for 3 weeks. • Group (2) (Doxorubicin Group) mice received an i.p. dose of doxorubicin (2 mg/kg/once weekly) for 3 weeks. • Group (3) mice were given an i.p. dose of 8b compound (1 mg/kg/once weekly) for 3 weeks, • Group (4) mice were given an i.p. dose of 3b compound (1.4 mg/kg/once weekly) for 3 weeks.
Two days after the last dose of therapy, blood was drawn from the mice’s orbital canthus, and serum was separated and stored at −80 °C for upcoming biochemical investigations. Following the cervical dislocation method of euthanasia, tumour samples from each mouse were collected and preserved in neutral buffered formalin at a 10% concentration for immunohistochemistry and histopathology studies. Histological preparations were performed according to the reported method. Slices of Ehrlich tumour were cut to a thickness of 3–4 mm before being fixed in 10% neutral buffered formalin (10% NBF), dehydrated through a series of ethanol solutions, cleaned in xylene, and finally embedded in paraffin. To examine the overall tissue architecture, sections ([…]) thick were cut from paraffin blocks using a microtome and stained with haematoxylin and eosin. We used a Leica microscope (CH9435 Hee56rbrugg) to look at H&E-stained tissue sections (Leica Microsystems, Switzerland).
The avidin–biotin–peroxidase complex (ABC) method was used to do immunohistochemistry on paraffin sections that were put on positively charged slides. Rabbit Anti-VEGF Receptor 2 Polyclonal Antibody (Elabscience Cat# E-AB-63481, Dil.: 1:100) and Rabbit Monoclonal anti-caspase-3 antibody, active (cleaved) form (Sigma Aldrich Catalog # AB3623)[41], were utilised during this IHC assessment. Each group’s sections were treated with the previously specified antibodies, after which the ABC technique reagents (Vectastain ABC-HRP kit, Vector labs) were applied. To locate the antigen–antibody combination, marker expression was stained with diaminobenzidine (DAB, manufactured by Sigma) and labelled with peroxidase. In order to conduct negative controls, non-immune serum was substituted for the primary or secondary antibodies. IHC-stained sections were assessed using a Leica (CH9435 Hee56sbrugg) microscope (Leica Microsystems, Switzerland).
Using one-way analysis of variance (ANOVA) followed by Tukey’s post-hoc test, the difference between experimental groups was analysed. All data are presented as mean ± standard deviation (SD). All comparisons were judged statistically significant when the p values ≤ 0.05. ImageJ (NIH Image J system, Bethesda, MD) was used for the analysis of immunohistochemistry photos.

A further experiment concerns rat glioma. More on the design: method as in PMID 20036563, PMID 26890114. As to conditions: against rat glioma; read-out: antitumor activity IC50; cited from earlier work.
The next experiment concerns HepG2. More on the design: method as in PMID 20036563, PMID 26890114. Particulars: cell line not clearly printed, probably HepG2; read-out: antitumor activity IC50; cited from earlier work.
The next experiment deals with Pim1 gene. More on the design: method as in PMID 34458233. As to conditions: quantitative RT-PCR; cited from earlier work.
A further experiment deals with Pim1. More on the design: method as in PMID 25575657. Particulars: cited from earlier work.
The subject of another experiment is Pim3. More on the design: method as in PMID 25575657. As to conditions: cited from earlier work.
A further experiment has as its system Pim2. Details: method as in PMID 25575657. As to conditions: cited from earlier work.
For the next experiment, the system named is leukaemia. More on the design: method as in PMID 20036563, PMID 26890114. As to conditions: against leukaemia; read-out: antitumor activity IC50; cited from earlier work.

In the case of `COc1cccc2c1C(=O)c1c(O)c3c(c(O)c1C2=O)C[C@@](O)(C(=O)CO)C[C@@H]3O[C@H]1C[C@H](N)[C@H](O)[C@H](C)O1` [Doxorubicin, doxorubicin, reference compound], the “VEGF expression by immunohistochemistry” value in the experiment with Ehrlich solid carcinoma is “low expression of VEGF”; with Ehrlich solid carcinoma (listed as DOX), “moderate”. Also, the “caspase-3 expression by immunohistochemistry” value is “moderate caspase-3 expression” in the experiment on Ehrlich solid carcinoma and “positive caspase3 immunoreactivity” in the experiment with Ehrlich solid carcinoma (listed as DOX). Besides, the figures for the “Histopathological examination of Ehrlich solid tumour (H&E)” value in the experiment on Ehrlich solid carcinoma and in the experiment on Ehrlich solid carcinoma (listed as doxorubicin) were “small clusters of cancerous cells” and “large region of necrotic muscle tissue surrounded by small clusters of cancerous cells”, respectively. For `COc1cc(-c2ccc(Nc3nc(-c4ccc(Br)cc4)cs3)c(OC)c2)ccc1Nc1nc(-c2ccc(Br)cc2)cs1` [III], the concentration for half-maximal inhibition (IC50) in the experiment with rat glioma is 15.7 µM. Regarding `CNc1nc(C)c(/C(C)=N\c2nc(C)c(/N=N/c3ccccc3)s2)s1` [IV], the concentration for half-maximal inhibition (IC50) in the experiment with HepG2 was 13.2 µM. As for `Cc1[nH]/c(=N/N=C2CCC(=N/N=c3/[nH]c(C)c(/N=N/c4ccccc4)s3)CC2)sc1/N=N/c1ccccc1` [IXa], in the experiment with Pim1 gene, the “fold of change in Pim1 kinase activity (mRNA expression of Pim1 gene)” value (“fold of change in Pim1 kinase activity” below) is given as 0.4 fold.

As for `Cc1ccc(/N=N/c2s/c(=N\N=C3CCC(=N/N=c4/[nH]c(C)c(/N=N/c5ccc(C)cc5)s4)CC3)[nH]c2C)cc1` [IXb], the “fold of change in Pim1 kinase activity” value with Pim1 gene is recorded as 0.5 fold.

`Cc1[nH]/c(=N/N=C2CCC(=N/N=c3/[nH]c(C)c(/N=N/c4ccccc4Cl)s3)CC2)sc1/N=N/c1ccccc1Cl` [IXc]: in the experiment with Pim1 gene, the “fold of change in Pim1 kinase activity” value was 0.3 fold.

As to `O=C(Nc1cnccc1OC1CCNCC1)c1csc(-c2c(F)cccc2F)n1` [VIIIa], the concentration for half-maximal inhibition (IC50) in the experiment with Pim1 was 0.001 µM; in the experiment with Pim3, 0.001 µM; with Pim2, 0.018 µM. For `O=C(Nc1cnccc1OC1CCCCC1)c1csc(-c2c(F)cccc2F)n1` [VIIIb], the IC50 in the experiment on Pim1 was 0.001 µM; in the experiment on Pim2 it was 0.25 µM. Regarding `Cc1sc(=N)n(-c2cccc(-n3c(-c4ccc(Cl)cc4)c(C)sc3=N)c2)c1-c1ccc(Cl)cc1` [VI], in the experiment on leukaemia, the IC50 was 1.46 µM.

As usually defined, the IC50 is the concentration at which inhibition is half-maximal.

Values taken from PMC9897788, “Design, synthesis and cytotoxic evaluation of novel bis-thiazole derivatives as preferential Pim1 kinase inhibitors with in vivo and in silico study” (Journal of Enzyme Inhibition and Medicinal Chemistry, 2023).
